Measurements reported in patent US20250025451A1, “TREATMENT OF CANCER WITH KDM4 INHIBITORS” (Celgene Corporation, priority 2021, published 2025).

Test system: 301 cancer cell lines from different tumor types
Assay: 2D cell viability inhibition assay, broad cancer cell line panel (OncoPanel; CellTiter-Glo)
Assay type: cell-based
Set-up: key to Emax: % of DMSO control (minimum response over dose range); AUC: scale not given here
Settings: for AUC / Emax: 168 hours; for Emax: in % (unit assumed)
Protocol: In a larger screening study, compound 1 was evaluated across a broad cancer cell line panel (OncoPanel; HD Biosciences) composed of 301 cancer cell lines from different tumor types.
2D cell viability inhibition assays were performed in multiwell plates seeded with cells from the panel. After seeding, the plates were cultured overnight in a humidified incubator at 37° C. to promote adherence. Assays were initiated in individual wells by adding either DMSO as a vehicle control, growth media as a blank, or serially diluted compound 1 (10 μM to 0.0005 μM with 1:3 serial dilution). Cultures were incubated for 168 hours after which the number of viable cells in each test well was assessed using the CellTiter-Glo® Luminescent Cell Viability Assay. Luminescence readouts were performed using an EnVision® Multilabel Reader and the compound 1 readouts were normalized to the DMSO control readouts, expressed as a percent of the control. Outliers were flagged out by visual inspection. Percent of control was plotted against the corresponding compound 1 concentration and the absolute IC50 value was determined using four-parameter logistic non-linear regression as the concentration where inhibition was 50% of the control. […] Emax was recorded as the minimum in y with the compound dose range. […] The sensitive/moderate/resistant calls for each cell line was determined by visually inspecting the resulting clustering dendrogram. All the analyses were done in R Core Team.

[1] = 168 h, HUH28 (biliary tract, NS)
[2] = 168 h, KG1 (haematopoietic and lymphoid tissue, acute myeloid leukaemia)
[3] = 168 h, KURAMOCHI (ovary, undifferentiated carcinoma)
[4] = 168 h, NMCG1 (central nervous system, NS)
[5] = 168 h, T24 (urinary tract, transitional cell carcinoma)
[6] = 168 h, TE1 (oesophagus, squamous cell carcinoma)
[7] = 168 h, TE8 (oesophagus, squamous cell carcinoma)
[8] = BT20 (breast, ductal carcinoma)
[9] = BT474 (breast, ductal carcinoma)
[10] = C2BBE1 (large intestine, adenocarcinoma)
[11] = CAL27 (upper aerodigestive tract, squamous cell carcinoma)
[12] = CALU1 (lung, squamous cell carcinoma)
[13] = CAPAN2 (pancreas, ductal carcinoma)
[14] = CCFSTTG1 (central nervous system, astrocytoma)
[15] = DAOY (central nervous system, NS)
[16] = DMS53 (lung, small cell carcinoma)
[17] = HCC38 (breast, ductal carcinoma)
[18] = HCC1419 (breast, ductal carcinoma)
[19] = HCC1937 (breast, ductal carcinoma)
[20] = Homo sapiens, A204, 168 h, A204 (soft tissue, NS)
[21] = Homo sapiens, BT-20, 168 h, BT20 (breast, ductal carcinoma)
[22] = Homo sapiens, BT-474, 168 h, BT474 (breast, ductal carcinoma)
[23] = Homo sapiens, C2BBe1, 168 h, C2BBE1 (large intestine, adenocarcinoma)
[24] = Homo sapiens, CAL-27, 168 h, CAL27 (upper aerodigestive tract, squamous cell carcinoma)
[25] = Homo sapiens, CCF-STTG1, 168 h, CCFSTTG1 (central nervous system, astrocytoma)
[26] = Homo sapiens, Calu-1, 168 h, CALU1 (lung, squamous cell carcinoma)
[27] = Homo sapiens, Calu-3, 168 h, CALU3 (lung, adenocarcinoma)
[28] = Homo sapiens, Capan-2, 168 h, CAPAN2 (pancreas, ductal carcinoma)
[29] = Homo sapiens, DMS-53, 168 h, DMS53 (lung, small cell carcinoma)
[30] = Homo sapiens, Daoy, 168 h, DAOY (central nervous system, NS)
[31] = Homo sapiens, G-361, 168 h, G361 (skin, NS)
[32] = Homo sapiens, HCC38, 168 h, HCC38 (breast, ductal carcinoma)
[33] = Homo sapiens, HCC827, 168 h, HCC827 (lung, adenocarcinoma)
[34] = Homo sapiens, HCC1419, 168 h, HCC1419 (breast, ductal carcinoma)
[35] = Homo sapiens, HCC1428, 168 h, HCC1428 (breast, NS)
[36] = Homo sapiens, HCC1937, 168 h, HCC1937 (breast, ductal carcinoma)
[37] = Homo sapiens, HT-144, 168 h, HT144 (skin, NS)
[38] = Homo sapiens, Hs 695T, 168 h, HS695T (skin, NS)
[39] = Homo sapiens, KYSE-70, 168 h, KYSE70 (oesophagus, squamous cell carcinoma)
[40] = Homo sapiens, Kasumi 1, 168 h, KASUMI1 (haematopoietic and lymphoid tissue, acute myeloid leukaemia)
[41] = Homo sapiens, Lu-99, 168 h, LU99 (lung, large cell carcinoma)
[42] = Homo sapiens, MDA-MB-157, 168 h, MDAMB157 (breast, ductal carcinoma)
[43] = Homo sapiens, MDA-MB-175-VII, 168 h, MDAMB 175 VII (breast, ductal carcinoma)
[44] = Homo sapiens, MDA-MB-231, 168 h, MDAMB231 (breast, NS)
[45] = Homo sapiens, MDA-MB-361, 168 h, MDAMB361 (breast, NS)
[46] = Homo sapiens, MDA-MB-415, 168 h, MDAMB415 (breast, NS)
[47] = Homo sapiens, MDA-MB-436, 168 h, MDAMB436 (breast, NS)
[48] = Homo sapiens, MDA-MB-468, 168 h, MDAMB468 (breast, NS)
[49] = Homo sapiens, Malme-3M, 168 h, MALME3M (skin, NS)
[50] = Homo sapiens, MeWo, 168 h, MEWO (skin, NS)
[51] = Homo sapiens, NCI-H441, 168 h, NCIH441 (lung, adenocarcinoma)
[52] = Homo sapiens, NCI-H596, 168 h, NCIH596 (lung, mixed adenosquamous carcinoma)
[53] = Homo sapiens, NCI-H1395, 168 h, NCIH1395 (lung, adenocarcinoma)
[54] = Homo sapiens, NCI-H1563, 168 h, NCIH1563 (lung, adenocarcinoma)
[55] = Homo sapiens, NCI-H1573, 168 h, NCIH1573 (lung, adenocarcinoma)

CC(C)c1ccc(N(C)c2ccc3c(c2)OCC[C@H]3CNc2cnccc2C(=O)O)cc1 [Compound 1, 3-({[(4R)-7-{methyl[4-(propan-2-yl)phenyl]amino}-3,4-dihydro-2H-1-benzopyran-4-yl]methyl}amino)pyridine-4-carboxylic acid]
EC50 (168 h, HS688AT (skin, NS)): ≥ 10 µM
IC50 (168 h, HS688AT (skin, NS)): ≥ 10 µM
EC50 (168 h, HS739T (breast, NS)): ≥ 10 µM
IC50 (168 h, HS739T (breast, NS)): ≥ 10 µM
EC50 (168 h, HS839T (skin, NS)): ≥ 10 µM
IC50 (168 h, HS839T (skin, NS)): ≥ 10 µM
EC50 (168 h, HS852T (skin, NS)): ≥ 10 µM
IC50 (168 h, HS852T (skin, NS)): ≥ 10 µM
EC50 [1]: ≥ 10 µM
IC50 [1]: ≥ 10 µM
EC50 [2]: ≥ 10 µM
IC50 [2]: ≥ 10 µM
EC50 [3]: ≥ 10 µM
IC50 [3]: ≥ 10 µM
EC50 [4]: ≥ 10 µM
IC50 [4]: ≥ 10 µM
EC50 (168 h, SKMEL31 (skin, NS)): ≥ 10 µM
IC50 (168 h, SKMEL31 (skin, NS)): ≥ 10 µM
EC50 [5]: ≥ 10 µM
IC50 [5]: ≥ 10 µM
EC50 [6]: ≥ 10 µM
IC50 [6]: ≥ 10 µM
EC50 [7]: ≥ 10 µM
IC50 [7]: ≥ 10 µM
AUC (A204 (soft tissue, NS)): 0.7136
Emax (A204 (soft tissue, NS)): 58.91
AUC [8]: 0.9117
Emax [8]: 78.79
AUC [9]: 0.7206
Emax [9]: 53.88
AUC [10]: 0.8303
Emax [10]: 59.34
AUC [11]: 0.8335
Emax [11]: 74.68
AUC [12]: 1.217
Emax [12]: 118.4694
AUC (CALU3 (lung, adenocarcinoma)): 0.7277
Emax (CALU3 (lung, adenocarcinoma)): 50.88
AUC [13]: 0.8808
Emax [13]: 75.02
AUC [14]: 0.879
Emax [14]: 78.9
AUC [15]: 0.9684
Emax [15]: 83.4
AUC [16]: 0.7426
Emax [16]: 49.07
AUC (G361 (skin, NS)): 1.044
Emax (G361 (skin, NS)): 89.52
AUC [17]: 0.9864
Emax [17]: 93.61
AUC (HCC827 (lung, adenocarcinoma)): 0.8814
Emax (HCC827 (lung, adenocarcinoma)): 74.84
AUC [18]: 0.7201
Emax [18]: 52.42
AUC (HCC1428 (breast, NS)): 0.7818
Emax (HCC1428 (breast, NS)): 59.9889
AUC [19]: 0.9094
Emax [19]: 80.9493
AUC (HS688AT (skin, NS)): 1.105
Emax (HS688AT (skin, NS)): 98.47
AUC (HS695T (skin, NS)): 0.9238
Emax (HS695T (skin, NS)): 74.11
AUC (HS739T (breast, NS)): 0.8686
Emax (HS739T (breast, NS)): 78.35
AUC (HS839T (skin, NS)): 1.097
Emax (HS839T (skin, NS)): 101.2434
AUC (HS852T (skin, NS)): 0.883
Emax (HS852T (skin, NS)): 78.51
AUC (HT144 (skin, NS)): 0.8912
Emax (HT144 (skin, NS)): 81.61
AUC (HUH28 (biliary tract, NS)): 0.9862
Emax (HUH28 (biliary tract, NS)): 92.15
EC50 [20]: ≥ 10 µM
IC50 [20]: ≥ 10 µM
EC50 [21]: ≥ 10 µM
IC50 [21]: ≥ 10 µM
EC50 [22]: ≥ 10 µM
IC50 [22]: ≥ 10 µM
EC50 [23]: ≥ 10 µM
IC50 [23]: ≥ 10 µM
EC50 [24]: ≥ 10 µM
IC50 [24]: ≥ 10 µM
EC50 [25]: ≥ 10 µM
IC50 [25]: ≥ 10 µM
EC50 [26]: ≥ 10 µM
IC50 [26]: ≥ 10 µM
EC50 [27]: ≥ 10 µM
IC50 [27]: ≥ 10 µM
EC50 [28]: ≥ 10 µM
IC50 [28]: ≥ 10 µM
EC50 [29]: ≥ 10 µM
IC50 [29]: ≥ 10 µM
EC50 [30]: ≥ 10 µM
IC50 [30]: ≥ 10 µM
EC50 [31]: ≥ 10 µM
IC50 [31]: ≥ 10 µM
EC50 [32]: ≥ 10 µM
IC50 [32]: ≥ 10 µM
EC50 [33]: ≥ 10 µM
IC50 [33]: ≥ 10 µM
EC50 [34]: ≥ 10 µM
IC50 [34]: ≥ 10 µM
EC50 [35]: ≥ 10 µM
IC50 [35]: ≥ 10 µM
EC50 [36]: ≥ 10 µM
IC50 [36]: ≥ 10 µM
EC50 [37]: ≥ 10 µM
IC50 [37]: ≥ 10 µM
EC50 [38]: ≥ 10 µM
IC50 [38]: ≥ 10 µM
EC50 [39]: ≥ 10 µM
IC50 [39]: ≥ 10 µM
EC50 [40]: ≥ 10 µM
IC50 [40]: ≥ 10 µM
EC50 [41]: ≥ 10 µM
IC50 [41]: ≥ 10 µM
EC50 [42]: ≥ 10 µM
IC50 [42]: ≥ 10 µM
EC50 [43]: ≥ 10 µM
IC50 [43]: ≥ 10 µM
EC50 [44]: ≥ 10 µM
IC50 [44]: ≥ 10 µM
EC50 [45]: ≥ 10 µM
IC50 [45]: ≥ 10 µM
EC50 [46]: ≥ 10 µM
IC50 [46]: ≥ 10 µM
EC50 [47]: ≥ 10 µM
IC50 [47]: ≥ 10 µM
EC50 [48]: ≥ 10 µM
IC50 [48]: ≥ 10 µM
EC50 [49]: ≥ 10 µM
IC50 [49]: ≥ 10 µM
EC50 [50]: ≥ 10 µM
IC50 [50]: ≥ 10 µM
EC50 [51]: ≥ 10 µM
IC50 [51]: ≥ 10 µM
EC50 [52]: ≥ 10 µM
IC50 [52]: ≥ 10 µM
EC50 [53]: ≥ 10 µM
IC50 [53]: ≥ 10 µM
EC50 [54]: ≥ 10 µM
IC50 [54]: ≥ 10 µM
EC50 [55]: ≥ 10 µM
IC50 [55]: ≥ 10 µM
